The values below come from paper PMC4854315, “Discovery of a novel allosteric inhibitor-binding site in ERK5: comparison with the canonical kinase hinge ATP-binding site” (Acta Crystallographica. Section D, Structural Biology, 2016).

Common to all, as to experiment: Z'-LYTE kinase panel
Common to all, as to assay type: biochemical

One experiment deals with T1, AURKB (Aurora B) (Homo sapiens, UniProt Q96GD4).
T1 construct: purchased ThermoFisher (SelectScreen, Z'-LYTE)
An outline of the steps: (§1)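 The 225-kinase standard panel was run using the Z′-LYTE protocol, and inhibition was expressed as a percentage relative to uninhibited activity at 10 µM compound.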

Another experiment concerns the target T2, MAPK14 (p38 alpha) (Homo sapiens, UniProt Q16539).
T2 construct: purchased ThermoFisher (SelectScreen, Z'-LYTE)
The note with it: 10 µM compound; ATP 100. An outline of the steps: as §1

For the next experiment, the target named is T3, LYN B (Homo sapiens, UniProt P07948).
T3 construct: purchased ThermoFisher (SelectScreen, Z'-LYTE)
An outline of the steps: as §1

For another experiment, the target named is T4, FLT4 (VEGFR3) (Homo sapiens, UniProt P35916).
T4 construct: purchased ThermoFisher (SelectScreen, Z'-LYTE)
Particulars: 10 µM compound, ATP Km app. An outline of the steps:
as §1

For another experiment, the target named is T5, PRKCI (PKC iota) (Homo sapiens, UniProt P41743).
T5 construct: purchased ThermoFisher (SelectScreen, Z'-LYTE)
T5 sequence (P41743 1-596): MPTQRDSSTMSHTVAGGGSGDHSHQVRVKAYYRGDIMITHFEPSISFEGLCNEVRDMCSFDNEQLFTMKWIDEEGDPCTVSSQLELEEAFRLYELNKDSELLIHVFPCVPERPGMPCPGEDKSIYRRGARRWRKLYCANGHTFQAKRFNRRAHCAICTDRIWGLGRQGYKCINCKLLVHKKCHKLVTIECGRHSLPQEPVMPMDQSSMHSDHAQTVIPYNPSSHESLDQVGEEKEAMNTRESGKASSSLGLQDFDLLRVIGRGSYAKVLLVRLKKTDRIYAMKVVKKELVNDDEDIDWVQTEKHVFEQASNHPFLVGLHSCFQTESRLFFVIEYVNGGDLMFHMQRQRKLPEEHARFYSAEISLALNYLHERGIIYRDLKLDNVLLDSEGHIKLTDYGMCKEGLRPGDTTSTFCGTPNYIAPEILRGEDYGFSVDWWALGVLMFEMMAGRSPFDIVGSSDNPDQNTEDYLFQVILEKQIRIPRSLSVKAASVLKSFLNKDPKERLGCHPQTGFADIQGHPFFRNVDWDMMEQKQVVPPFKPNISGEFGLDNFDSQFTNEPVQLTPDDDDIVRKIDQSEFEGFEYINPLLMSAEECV
An outline of the steps:
as §1

Another experiment has as its target T6, BRAF (Homo sapiens, UniProt P15056).
T6 construct: purchased ThermoFisher (SelectScreen, Z'-LYTE)
Particulars: 10 µM compound; ATP 100. An outline of the steps: as §1

Another experiment concerns the target T7, CSNK1D (CK1 delta) (Homo sapiens, UniProt P48730).
T7 construct: purchased ThermoFisher (SelectScreen, Z'-LYTE)
An outline of the steps: as §1

In another experiment the target is T8, PDK1 Direct (Homo sapiens, UniProt O15530).
T8 construct: purchased ThermoFisher (SelectScreen, Z'-LYTE)
T8 sequence (O15530 1-556): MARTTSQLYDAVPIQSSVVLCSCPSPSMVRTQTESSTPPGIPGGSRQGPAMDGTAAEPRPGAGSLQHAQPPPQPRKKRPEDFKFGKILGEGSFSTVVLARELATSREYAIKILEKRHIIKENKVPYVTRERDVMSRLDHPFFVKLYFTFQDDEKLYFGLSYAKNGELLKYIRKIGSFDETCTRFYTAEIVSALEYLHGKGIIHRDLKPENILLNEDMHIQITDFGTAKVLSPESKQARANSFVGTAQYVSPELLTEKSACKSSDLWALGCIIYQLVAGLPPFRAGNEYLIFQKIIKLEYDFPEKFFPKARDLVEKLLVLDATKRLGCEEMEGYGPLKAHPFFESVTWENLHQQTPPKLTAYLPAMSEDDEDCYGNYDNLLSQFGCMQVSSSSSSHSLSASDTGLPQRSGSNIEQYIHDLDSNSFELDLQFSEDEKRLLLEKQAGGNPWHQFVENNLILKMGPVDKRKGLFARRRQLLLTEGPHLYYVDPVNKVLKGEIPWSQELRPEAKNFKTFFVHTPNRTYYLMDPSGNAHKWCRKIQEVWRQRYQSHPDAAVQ
An outline of the steps: as §1

In a further experiment the target is T9, FER (Homo sapiens, UniProt P16591).
T9 construct: purchased ThermoFisher (SelectScreen, Z'-LYTE)
An outline of the steps:
as §1

Another experiment addresses T10, CSNK1G2 (CK1 gamma 2) (Homo sapiens, UniProt P78368).
T10 construct: purchased ThermoFisher (SelectScreen, Z'-LYTE)
An outline of the steps:
as §1

The next experiment has as its target T11, IKBKB (IKK beta) (Homo sapiens, UniProt O14920).
T11 construct: purchased ThermoFisher (SelectScreen, Z'-LYTE)
T11 sequence (O14920 1-756): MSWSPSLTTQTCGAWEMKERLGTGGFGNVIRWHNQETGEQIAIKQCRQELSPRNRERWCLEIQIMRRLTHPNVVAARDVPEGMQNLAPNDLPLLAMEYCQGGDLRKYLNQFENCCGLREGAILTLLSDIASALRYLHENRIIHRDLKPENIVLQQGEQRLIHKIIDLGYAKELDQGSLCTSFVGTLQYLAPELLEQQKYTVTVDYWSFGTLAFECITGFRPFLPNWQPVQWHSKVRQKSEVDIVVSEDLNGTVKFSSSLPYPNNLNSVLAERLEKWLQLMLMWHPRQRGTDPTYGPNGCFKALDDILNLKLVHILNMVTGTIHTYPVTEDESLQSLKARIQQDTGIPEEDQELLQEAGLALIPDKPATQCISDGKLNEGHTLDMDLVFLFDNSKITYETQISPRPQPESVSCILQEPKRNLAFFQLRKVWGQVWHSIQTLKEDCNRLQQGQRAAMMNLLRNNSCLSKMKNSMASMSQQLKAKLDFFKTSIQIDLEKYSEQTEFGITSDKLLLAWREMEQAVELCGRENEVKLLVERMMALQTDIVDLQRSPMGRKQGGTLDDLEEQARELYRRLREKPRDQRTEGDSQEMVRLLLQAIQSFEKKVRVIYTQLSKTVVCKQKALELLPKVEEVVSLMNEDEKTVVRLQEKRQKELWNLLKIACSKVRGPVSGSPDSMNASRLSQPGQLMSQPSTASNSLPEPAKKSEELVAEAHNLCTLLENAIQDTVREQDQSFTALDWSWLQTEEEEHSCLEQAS
An outline of the steps: as §1

Some results are limits rather than exact numbers.

T3 sequence (P07948 1-491 isoform P07948-2): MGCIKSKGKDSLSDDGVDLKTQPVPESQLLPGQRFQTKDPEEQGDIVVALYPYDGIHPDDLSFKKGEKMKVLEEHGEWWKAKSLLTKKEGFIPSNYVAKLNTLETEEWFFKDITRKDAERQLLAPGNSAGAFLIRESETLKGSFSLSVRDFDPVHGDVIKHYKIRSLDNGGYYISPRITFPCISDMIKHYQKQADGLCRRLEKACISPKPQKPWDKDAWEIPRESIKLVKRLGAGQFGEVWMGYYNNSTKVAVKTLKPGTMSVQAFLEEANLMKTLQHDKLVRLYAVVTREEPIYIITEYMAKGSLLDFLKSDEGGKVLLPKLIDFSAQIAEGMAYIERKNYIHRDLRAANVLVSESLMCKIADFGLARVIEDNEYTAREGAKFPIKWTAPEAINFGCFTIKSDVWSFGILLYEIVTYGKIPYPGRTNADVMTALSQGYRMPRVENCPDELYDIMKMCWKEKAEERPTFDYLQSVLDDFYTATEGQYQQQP
T7 sequence (P48730 whole entry): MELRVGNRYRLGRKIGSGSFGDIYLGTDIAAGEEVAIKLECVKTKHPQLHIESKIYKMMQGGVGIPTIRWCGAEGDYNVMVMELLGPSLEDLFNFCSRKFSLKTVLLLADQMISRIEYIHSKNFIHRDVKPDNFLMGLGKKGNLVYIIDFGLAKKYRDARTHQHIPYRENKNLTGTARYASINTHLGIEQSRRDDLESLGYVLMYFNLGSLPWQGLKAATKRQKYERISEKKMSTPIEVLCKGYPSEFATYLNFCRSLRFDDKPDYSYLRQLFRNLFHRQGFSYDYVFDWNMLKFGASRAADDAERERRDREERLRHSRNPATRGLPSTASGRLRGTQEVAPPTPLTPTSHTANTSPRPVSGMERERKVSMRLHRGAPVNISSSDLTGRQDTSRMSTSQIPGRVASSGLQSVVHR
T9 sequence (P16591 whole entry): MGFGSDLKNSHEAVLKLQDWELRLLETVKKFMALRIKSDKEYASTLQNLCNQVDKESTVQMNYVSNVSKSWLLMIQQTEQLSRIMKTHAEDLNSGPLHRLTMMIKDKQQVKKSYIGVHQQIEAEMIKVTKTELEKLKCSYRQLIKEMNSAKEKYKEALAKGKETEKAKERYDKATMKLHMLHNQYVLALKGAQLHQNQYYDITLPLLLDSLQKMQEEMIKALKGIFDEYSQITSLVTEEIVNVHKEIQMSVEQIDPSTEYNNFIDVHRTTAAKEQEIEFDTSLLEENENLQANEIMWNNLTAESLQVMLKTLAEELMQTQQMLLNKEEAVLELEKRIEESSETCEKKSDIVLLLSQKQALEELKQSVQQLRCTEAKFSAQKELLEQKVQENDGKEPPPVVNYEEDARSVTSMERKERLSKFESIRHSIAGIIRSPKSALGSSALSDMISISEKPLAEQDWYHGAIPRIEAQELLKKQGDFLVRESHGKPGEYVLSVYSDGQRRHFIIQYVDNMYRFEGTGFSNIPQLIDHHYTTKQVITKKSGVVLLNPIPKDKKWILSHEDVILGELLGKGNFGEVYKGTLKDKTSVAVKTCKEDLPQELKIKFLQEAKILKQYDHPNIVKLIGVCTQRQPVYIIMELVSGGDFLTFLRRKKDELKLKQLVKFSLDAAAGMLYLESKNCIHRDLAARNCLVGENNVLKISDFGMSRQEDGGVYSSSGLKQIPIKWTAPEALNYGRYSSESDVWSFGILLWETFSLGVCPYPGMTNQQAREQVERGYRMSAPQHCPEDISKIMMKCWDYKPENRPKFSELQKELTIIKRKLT
T6 sequence (P15056 whole entry): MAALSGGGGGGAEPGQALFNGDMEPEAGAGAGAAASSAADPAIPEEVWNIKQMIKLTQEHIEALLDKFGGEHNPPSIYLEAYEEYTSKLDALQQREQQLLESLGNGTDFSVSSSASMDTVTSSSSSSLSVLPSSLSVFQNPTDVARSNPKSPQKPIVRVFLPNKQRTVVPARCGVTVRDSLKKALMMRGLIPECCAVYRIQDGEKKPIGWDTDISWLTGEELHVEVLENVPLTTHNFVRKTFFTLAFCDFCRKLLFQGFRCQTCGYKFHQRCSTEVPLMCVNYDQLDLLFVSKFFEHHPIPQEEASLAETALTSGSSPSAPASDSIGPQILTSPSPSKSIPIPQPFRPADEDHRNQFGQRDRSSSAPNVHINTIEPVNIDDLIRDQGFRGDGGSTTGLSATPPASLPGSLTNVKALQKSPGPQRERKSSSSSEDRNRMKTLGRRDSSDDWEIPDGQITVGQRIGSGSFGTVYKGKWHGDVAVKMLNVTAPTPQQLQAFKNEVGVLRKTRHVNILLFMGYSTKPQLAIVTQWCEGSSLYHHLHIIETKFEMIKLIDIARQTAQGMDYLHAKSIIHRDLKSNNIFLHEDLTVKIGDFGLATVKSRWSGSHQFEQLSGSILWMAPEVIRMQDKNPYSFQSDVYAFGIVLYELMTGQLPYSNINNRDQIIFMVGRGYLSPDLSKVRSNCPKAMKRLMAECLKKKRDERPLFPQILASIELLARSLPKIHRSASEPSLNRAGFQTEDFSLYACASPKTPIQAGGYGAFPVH
T4 sequence (P35916 25-1363): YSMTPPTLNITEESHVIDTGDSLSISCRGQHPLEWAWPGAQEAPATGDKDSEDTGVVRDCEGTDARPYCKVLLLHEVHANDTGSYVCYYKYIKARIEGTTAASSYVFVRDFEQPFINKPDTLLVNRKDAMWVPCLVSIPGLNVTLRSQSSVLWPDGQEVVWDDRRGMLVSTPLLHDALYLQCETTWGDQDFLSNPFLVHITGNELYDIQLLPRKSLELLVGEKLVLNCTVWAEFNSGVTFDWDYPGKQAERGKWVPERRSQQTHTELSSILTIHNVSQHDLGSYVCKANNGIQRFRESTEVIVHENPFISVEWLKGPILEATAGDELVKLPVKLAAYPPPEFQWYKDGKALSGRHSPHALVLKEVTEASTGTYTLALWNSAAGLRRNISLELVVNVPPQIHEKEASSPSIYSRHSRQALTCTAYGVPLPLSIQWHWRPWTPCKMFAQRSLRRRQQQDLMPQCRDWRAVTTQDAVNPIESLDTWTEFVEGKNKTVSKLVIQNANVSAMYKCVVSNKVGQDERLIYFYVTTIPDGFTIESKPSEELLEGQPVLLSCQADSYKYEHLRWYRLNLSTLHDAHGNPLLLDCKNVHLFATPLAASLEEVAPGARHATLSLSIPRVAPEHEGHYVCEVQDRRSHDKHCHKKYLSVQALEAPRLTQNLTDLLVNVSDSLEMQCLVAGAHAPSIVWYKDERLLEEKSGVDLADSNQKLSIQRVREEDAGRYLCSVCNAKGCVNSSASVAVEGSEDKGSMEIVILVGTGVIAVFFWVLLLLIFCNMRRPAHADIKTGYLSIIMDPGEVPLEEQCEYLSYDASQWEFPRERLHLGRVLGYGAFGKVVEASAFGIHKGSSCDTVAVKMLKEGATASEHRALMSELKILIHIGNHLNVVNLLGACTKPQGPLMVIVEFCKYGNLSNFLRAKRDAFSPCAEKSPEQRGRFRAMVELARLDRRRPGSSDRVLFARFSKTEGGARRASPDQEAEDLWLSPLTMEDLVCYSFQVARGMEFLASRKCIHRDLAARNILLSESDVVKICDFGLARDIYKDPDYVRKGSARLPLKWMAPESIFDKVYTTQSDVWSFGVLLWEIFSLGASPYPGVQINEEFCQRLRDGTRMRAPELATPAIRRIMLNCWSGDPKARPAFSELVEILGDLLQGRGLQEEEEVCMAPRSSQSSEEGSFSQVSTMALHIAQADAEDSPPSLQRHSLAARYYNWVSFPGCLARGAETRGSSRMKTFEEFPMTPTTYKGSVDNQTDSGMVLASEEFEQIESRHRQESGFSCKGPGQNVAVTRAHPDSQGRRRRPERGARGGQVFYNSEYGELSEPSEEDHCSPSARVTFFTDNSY
T1 sequence (Q96GD4 whole entry): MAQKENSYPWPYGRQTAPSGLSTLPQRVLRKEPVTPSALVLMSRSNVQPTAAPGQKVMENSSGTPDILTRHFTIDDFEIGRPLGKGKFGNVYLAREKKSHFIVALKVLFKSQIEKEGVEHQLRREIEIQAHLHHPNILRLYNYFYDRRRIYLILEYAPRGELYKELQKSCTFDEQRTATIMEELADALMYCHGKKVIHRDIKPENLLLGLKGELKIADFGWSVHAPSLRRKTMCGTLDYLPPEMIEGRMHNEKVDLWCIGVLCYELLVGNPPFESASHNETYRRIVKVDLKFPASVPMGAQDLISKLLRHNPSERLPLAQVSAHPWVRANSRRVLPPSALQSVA
T2 sequence (Q16539 whole entry): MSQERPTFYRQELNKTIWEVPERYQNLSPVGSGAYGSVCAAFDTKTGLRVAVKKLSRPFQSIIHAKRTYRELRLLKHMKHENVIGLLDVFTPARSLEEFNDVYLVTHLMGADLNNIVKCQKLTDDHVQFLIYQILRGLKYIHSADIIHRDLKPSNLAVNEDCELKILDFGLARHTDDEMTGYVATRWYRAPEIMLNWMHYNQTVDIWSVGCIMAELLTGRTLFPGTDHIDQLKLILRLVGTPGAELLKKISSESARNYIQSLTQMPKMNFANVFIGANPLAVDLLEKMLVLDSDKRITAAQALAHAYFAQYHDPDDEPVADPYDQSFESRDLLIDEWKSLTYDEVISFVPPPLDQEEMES
T10 sequence (P78368 whole entry): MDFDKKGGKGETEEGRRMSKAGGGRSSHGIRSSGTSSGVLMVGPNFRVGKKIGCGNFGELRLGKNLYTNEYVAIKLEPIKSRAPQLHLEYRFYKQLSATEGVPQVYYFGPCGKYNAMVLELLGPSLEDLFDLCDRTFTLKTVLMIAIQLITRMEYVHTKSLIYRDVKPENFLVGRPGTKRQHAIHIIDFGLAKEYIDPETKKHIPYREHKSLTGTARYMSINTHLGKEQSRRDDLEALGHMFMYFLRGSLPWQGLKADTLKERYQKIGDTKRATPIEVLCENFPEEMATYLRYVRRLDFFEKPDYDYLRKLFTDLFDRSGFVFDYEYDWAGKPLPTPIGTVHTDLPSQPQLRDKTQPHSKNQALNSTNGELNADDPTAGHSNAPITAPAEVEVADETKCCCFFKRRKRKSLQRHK

What is called inhibition is the relative decrease from the control value, in per cent. For `Cc1ncc(-c2nc(Nc3ccc(C(=O)NCCN4CCCCC4)cc3)ncc2F)n1C(C)C` [Compound 3], the inhibition at 10 µM worked out at 88% against AURKB (Aurora B); 22% at MAPK14 (p38 alpha); 91% at LYN B; 99% on FLT4 (VEGFR3); 5.66% against PRKCI (PKC iota); 90% against BRAF. Further, the inhibition at 10 µM was 92% against CSNK1D (CK1 delta); 89% at PDK1 Direct; 105% against FER; 93% on CSNK1G2 (CK1 gamma 2); 33% against IKBKB (IKK beta).
With `Cc1cc(Nc2nc(N)nn2C(=O)NC(C)C)ccc1Cl` [Compound 5], the inhibition at 10 µM against AURKB (Aurora B) is 68%; at MAPK14 (p38 alpha), 26%; against LYN B, 35%; against FLT4 (VEGFR3), > 80%; on PRKCI (PKC iota), -6%; on BRAF, 12%. Further, the inhibition at 10 µM is -2% on CSNK1D (CK1 delta); -1.67% at PDK1 Direct; 22% on FER; 10% against CSNK1G2 (CK1 gamma 2); 3.42% against IKBKB (IKK beta). Also, the “FLT4 (VEGFR3) % Inhibition” value at FLT4 (VEGFR3) (listed as SN1109056190, 10 µM) was found to be 86%.
Turning to “XMD8-92 [Compound 2, reference compound]”, the “AURKB (Aurora B) % Inhibition” value on AURKB (Aurora B) (10 µM compound, ATP Km app) was 39%. Besides, the “MAPK14 (p38 alpha) % Inhibition” value at MAPK14 (p38 alpha) was 99%. The “LYN B % Inhibition” value at LYN B (10 µM compound, ATP Km app) worked out at 39%. For the same compound, the “FLT4 (VEGFR3) % Inhibition” value at FLT4 (VEGFR3) is 4%. Besides, the “PRKCI (PKC iota) % Inhibition” value at PRKCI (PKC iota) (10 µM compound, ATP Km app) amounted to 0.17%. Further, on BRAF, the “BRAF % Inhibition” value is 15%. The “CSNK1D (CK1 delta) % Inhibition” value at CSNK1D (CK1 delta) (10 µM compound, ATP Km app) was 4.56%. For the same compound, the “PDK1 Direct % Inhibition” value on PDK1 Direct (10 µM compound, ATP Km app) is -15%. The “FER % Inhibition” value at FER (10 µM compound, ATP Km app) turned out to be 79%. The “CSNK1G2 (CK1 gamma 2) % Inhibition” value at CSNK1G2 (CK1 gamma 2) (10 µM compound, ATP Km app) worked out at 11%. For the same compound, on IKBKB (IKK beta) (10 µM compound, ATP Km app), the “IKBKB (IKK beta) % Inhibition” value was 44%.
